According to PMC6941823, “A dispensable paralog of succinate dehydrogenase subunit C mediates standing resistance towards a subclass of SDHI fungicides in Zymoseptoria tritici” (PLoS Pathogens, 2019):
Read-outs that look alike come from different tables or passages of the source.

Columns and labels:
[1] = target: SQR (SDHC / altC) of IPO323 pTet::SDHC3 transformant, repressed (Zymoseptoria tritici, UniProt A0A1X7RQW2+F9X9V6+F9XH52+O42772); assay: Succinate-quinone (SQR) SDHI sensitivity assay on purified mitochondria, IPO323 pTet::SDHC3 repressed; assay type: biochemical
Method in brief: (§1)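 Succinate:ubiquinone/DCPIP reductase inhibition measured on purified mitochondria from Zymoseptoria tritici strains carrying either a single C-subunit gene (ZtSDHC1, ZtSDHC1_A84I or ZtSDHC3) or both ZtSDHC1 and ZtSDHC3; pTet::SDHC3 transformant tested under repressed and induced conditions.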

[2] = system: Zymoseptoria tritici isolates; assay: Growth tests on solid agar at discriminatory fungicide concentrations; assay type: cell-based; details: AE agar, pydiflumetofen 0.1 mg.L^-1, 18 DPI (procedure of Fig 6)
Description: Fig 6 Resistance to SHA-SDHIs in Z. tritici EU populations. […] Sensitivity data are sorted by genotype according to the presence of the ZtSDHC3 gene. ** p value of 0.0029 in Welch’s corrected unpaired t-test. (B) Solid agar growth of a collection of 93 Z. tritici isolates sampled in 2009 (same set as above). Individual strains from this collection are boxed and numbered 1 to 93. Boxes A and B correspond to reference resistant strains 06STD024 and 07STGB009 respectively. Box C corresponds to IPO323 reference sensitive isolate. The yellow framed boxes correspond to strains carrying the ZtSDHC3 gene. Yellow arrow designates strain 09STIR20.1 (number 78) carrying a non-functional alt-SDHC (frameshift, S6 Table).
A large scale spotting assay of 96 isolates (Fig 6) was performed using the V&P 96 floating pin tool VP408FP6 (V&P Scientific), equipped with flat tip FP6 pins of 1.58 mm diameter (resulting in approx. 0.4 μl transfer volume). Source cultures for cell spotting were grown in 100 μl YPD liquid medium in a 96 well flat bottom plate (Corning, 3370) at 18°C for 11 days (average cell density of 3.5·10^6/ml), then diluted 1:2x in fresh YPD medium and incubated for another 1.5 h before transfer with the pin tool (approx. 700 cells per spot) onto AE agar with or without fungicide. Plates were incubated at 20°C in the dark for up to 18 days. Smaller scale spotting assays (Figs 4 and 8) were performed using 5 days V8-agar plates inoculums adjusted to 2.10^6 spores.mL^-1 in water and diluted in steps of 3. 2μL of spore suspension was spotted on the plates, and the plates were incubated shielded from light at 21°C for 6 days.

[3] = system: Zymoseptoria tritici field and genetically modified strains; assay: Liquid culture assay for fungicide sensitivity determination; assay type: cell-based; details: Zymoseptoria tritici, liquid culture sensitivity
Procedure: Sensitivity towards commercial fungicides was determined for a set of 99 SHA-SDHI-naïve Z. tritici field isolates sampled in Europe between 2006 and 2009. The EC50 of these isolates was determined in liquid growth assays and the data obtained compared for each possible pair of SDHI fungicides (cross-resistance (XR) plots, Fig 1). […] Comparative succinate-quinone reductase (SQR) enzyme inhibition tests were performed with mitochondria extracted from a panel of SHA-SDHIs tolerant and sensitive isolates.
In order to characterize in more depth the mechanisms driving sensitivity differences across the isolates, a subset of eight isolates carrying the ZtSDHC3 gene was analyzed for their sensitivity to SDHIs, alt-SDHC expression and splicing patterns. Liquid culture growth sensitivity tests were performed to determine EC50s for this set of isolates towards a wide range of commercial and research SDHIs (S5 Table).
Pre-culture of the inoculum and fungicide sensitivity tests were performed following previously described procedures. Different ranges of inhibitor concentrations were used for population monitoring and for the detailed phenotyping of a selected set of individual field isolates and genetically modified strains. For fungicide sensitivity monitoring of European field populations, final inhibitors concentrations were between 100 mg.L^-1 and 0.0001 mg.L^-1 with uniform 10x dilution steps (7 inhibitor concentrations + DMSO control). For refined sensitivity analysis of a smaller panel of isolates final inhibitor concentrations ranged between 0.5 mM and 0.47 nM with uniform 4x dilution factor steps (11 inhibitor concentrations+ DMSO control).

[4] = target: altC-SQR (altC) of D024 SDHC1 KO mitochondria (Zymoseptoria tritici, UniProt A0A1X7RQW2+F9X9V6+O42772); assay: Succinate-quinone (SQR) SDHI sensitivity assay on purified mitochondria, 06STD024 SDHC1 KO; assay type: biochemical; details: for RF (resistance factor), D024 SDHC1 KO (altC): IC50 ratio compared to IPO323 values
Method in brief: as §1

[5] = system: SQR (SDHC / altC) of IPO323 pTet::SDHC3 transformant, induced; assay: Succinate-quinone (SQR) SDHI sensitivity assay on purified mitochondria, IPO323 pTet::SDHC3 induced; assay type: biochemical, Zymoseptoria tritici; details: IPO323 pTet::SDHC3 transformant grown in the absence of doxycycline; mean of three ± SD
Method in brief: as §1

[6] = target: SQR (SDHC) of D024 SDHC3 KO mitochondria (Zymoseptoria tritici, UniProt F9X9V6+F9XH52+O42772); assay: Succinate-quinone (SQR) SDHI sensitivity assay on purified mitochondria, 06STD024 SDHC3 KO; assay type: biochemical
Method in brief: (§2)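 Mitochondria purified from each strain were used for succinate:ubiquinone/DCPIP reductase assays, with suspensions adjusted to similar initial velocity (1 OD595nm hour^-1). Inhibitor was tested at 0.047 nM–50 μM in 4x steps (11 concentrations plus DMSO). IC50 came from non-linear fits of absorbance slopes (OD/min) against log concentration.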

[7] = target: WT-SQR (SDHC), IPO323 mitochondria (Zymoseptoria tritici, UniProt F9X9V6+F9XH52+O42772); assay: Succinate-quinone (SQR) SDHI sensitivity assay on purified mitochondria, IPO323; assay type: biochemical
Method in brief: as §2

[8] = IC50 ratio compared to IPO323 values

Chain of altC-SQR (altC) of D024 SDHC1 KO mitochondria (A0A1X7RQW2 36-181): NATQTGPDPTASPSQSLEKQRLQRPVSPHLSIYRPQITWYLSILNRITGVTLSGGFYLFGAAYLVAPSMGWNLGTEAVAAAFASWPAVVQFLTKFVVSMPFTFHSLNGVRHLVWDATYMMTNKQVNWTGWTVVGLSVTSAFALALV
Chain of altC-SQR (altC) of D024 SDHC1 KO mitochondria (O42772 20-297): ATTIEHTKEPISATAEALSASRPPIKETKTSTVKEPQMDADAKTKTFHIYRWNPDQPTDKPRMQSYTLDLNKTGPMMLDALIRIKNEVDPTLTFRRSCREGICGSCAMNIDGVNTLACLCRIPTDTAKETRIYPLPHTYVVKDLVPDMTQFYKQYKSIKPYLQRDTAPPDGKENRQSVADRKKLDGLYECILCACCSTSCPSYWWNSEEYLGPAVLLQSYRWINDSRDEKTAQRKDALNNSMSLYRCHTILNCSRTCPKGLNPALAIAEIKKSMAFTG
Chain of altC-SQR (altC) of D024 SDHC1 KO mitochondria (F9X9V6 1-193): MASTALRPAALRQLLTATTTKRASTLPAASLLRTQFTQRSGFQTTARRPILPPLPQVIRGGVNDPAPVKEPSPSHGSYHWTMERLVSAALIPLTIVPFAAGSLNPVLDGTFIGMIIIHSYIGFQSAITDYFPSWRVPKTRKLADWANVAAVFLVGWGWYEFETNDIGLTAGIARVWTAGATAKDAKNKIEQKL
Chain of altC-SQR (altC) of D024 SDHC1 KO mitochondria (F9WWR1 41-643 partner): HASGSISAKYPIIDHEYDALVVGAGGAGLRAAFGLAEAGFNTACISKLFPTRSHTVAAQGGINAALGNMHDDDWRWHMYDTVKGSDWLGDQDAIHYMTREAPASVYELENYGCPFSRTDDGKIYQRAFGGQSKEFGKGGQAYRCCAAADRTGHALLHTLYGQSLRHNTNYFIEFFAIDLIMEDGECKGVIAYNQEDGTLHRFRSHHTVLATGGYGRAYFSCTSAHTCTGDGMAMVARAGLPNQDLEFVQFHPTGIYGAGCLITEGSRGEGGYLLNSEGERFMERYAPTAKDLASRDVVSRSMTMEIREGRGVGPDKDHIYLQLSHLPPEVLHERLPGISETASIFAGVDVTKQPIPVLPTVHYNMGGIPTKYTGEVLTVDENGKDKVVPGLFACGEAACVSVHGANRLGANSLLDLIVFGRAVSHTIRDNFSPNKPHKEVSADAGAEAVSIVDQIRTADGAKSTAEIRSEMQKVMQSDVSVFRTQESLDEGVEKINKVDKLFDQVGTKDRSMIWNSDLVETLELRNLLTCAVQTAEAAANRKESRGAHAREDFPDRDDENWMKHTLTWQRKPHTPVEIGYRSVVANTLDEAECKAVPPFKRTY
Chain of SQR (SDHC / altC) of IPO323 pTet::SDHC3 transformant, repressed (F9XH52 44-187): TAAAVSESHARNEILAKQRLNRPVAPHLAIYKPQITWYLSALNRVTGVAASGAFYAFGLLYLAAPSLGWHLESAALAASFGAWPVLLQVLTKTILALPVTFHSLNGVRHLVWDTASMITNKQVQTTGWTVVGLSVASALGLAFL
Chain of SQR (SDHC / altC) of IPO323 pTet::SDHC3 transformant, repressed (O42772 20-297): as the sequence (O42772 20-297) above
Chain of SQR (SDHC / altC) of IPO323 pTet::SDHC3 transformant, repressed (F9X9V6 1-193): as the sequence (F9X9V6 1-193) above
Chain of SQR (SDHC / altC) of IPO323 pTet::SDHC3 transformant, repressed (A0A1X7RQW2 36-181): as the sequence (A0A1X7RQW2 36-181) above
Chain of SQR (SDHC / altC) of IPO323 pTet::SDHC3 transformant, repressed (F9WWR1 41-643 partner): as the sequence (F9WWR1 41-643 partner) above
Chain of SQR (SDHC) of D024 SDHC3 KO mitochondria (F9XH52 44-187): as the sequence (F9XH52 44-187) above
Chain of SQR (SDHC) of D024 SDHC3 KO mitochondria (O42772 19-297): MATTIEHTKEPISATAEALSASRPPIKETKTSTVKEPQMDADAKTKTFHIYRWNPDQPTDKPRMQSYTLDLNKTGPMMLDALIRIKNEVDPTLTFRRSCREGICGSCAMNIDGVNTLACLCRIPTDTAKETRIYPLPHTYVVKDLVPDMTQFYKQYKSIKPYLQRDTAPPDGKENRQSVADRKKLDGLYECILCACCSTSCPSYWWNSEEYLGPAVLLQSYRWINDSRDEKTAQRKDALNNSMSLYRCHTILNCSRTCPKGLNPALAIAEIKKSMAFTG
Chain of SQR (SDHC) of D024 SDHC3 KO mitochondria (F9X9V6 1-193): as the sequence (F9X9V6 1-193) above
Chain of SQR (SDHC) of D024 SDHC3 KO mitochondria (F9WWR1 29-643 partner): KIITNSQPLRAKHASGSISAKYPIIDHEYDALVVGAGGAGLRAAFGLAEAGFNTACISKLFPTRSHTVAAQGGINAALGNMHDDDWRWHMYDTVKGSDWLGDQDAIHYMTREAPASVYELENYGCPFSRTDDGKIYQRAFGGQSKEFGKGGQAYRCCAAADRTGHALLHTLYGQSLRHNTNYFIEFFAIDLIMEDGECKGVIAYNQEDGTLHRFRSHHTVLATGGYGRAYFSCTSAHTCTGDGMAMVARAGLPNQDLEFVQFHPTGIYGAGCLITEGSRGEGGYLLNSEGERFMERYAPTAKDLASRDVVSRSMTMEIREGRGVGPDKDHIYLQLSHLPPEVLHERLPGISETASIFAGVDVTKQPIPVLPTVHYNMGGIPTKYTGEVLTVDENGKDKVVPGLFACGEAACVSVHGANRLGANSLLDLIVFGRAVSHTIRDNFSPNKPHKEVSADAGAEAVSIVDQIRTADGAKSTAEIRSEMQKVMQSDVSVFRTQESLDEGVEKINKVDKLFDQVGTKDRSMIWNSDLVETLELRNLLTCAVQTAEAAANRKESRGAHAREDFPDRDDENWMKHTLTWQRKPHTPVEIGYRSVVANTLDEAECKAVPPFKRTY

Q: What does the source list for `CON(C(=O)c1cn(C)nc1C(F)F)[C@@H](C)Cc1c(Cl)cc(Cl)cc1Cl` [Pydiflumetofen]?
A: RF (resistance factor), pTet Repressed (SDHC / altC) [1, 8]: 1.7; IC50 ([1]; IPO323 pTet::SDHC3 transformant grown in presence of 30 mg.L^-1 doxycycline, mean of three ± SD): 0.5 ± 0.1 nM; Growth phenotype on SDHI-amended plate ([2]; strain 06STD024): Weak; Growth phenotype on SDHI-amended plate ([2]; strain 06STD024, listed as pydiflumetofen): weak growth; Growth phenotype on SDHI-amended plate ([2]; strain 07STGB009): Weak; Growth phenotype on SDHI-amended plate ([2]; strain 07STGB009, listed as pydiflumetofen): weak growth; Growth phenotype on SDHI-amended plate ([2]; strain 09STD041): Very weak; Growth phenotype on SDHI-amended plate ([2]; strain 09STD053): No; Growth phenotype on SDHI-amended plate ([2]; strain 09STF011): Weak; Growth phenotype on SDHI-amended plate ([2]; strain 09STF037): Very weak; Growth phenotype on SDHI-amended plate ([2]; strain 09STF112): Very weak; Growth phenotype on SDHI-amended plate ([2]; strain 09STIR20.3): Very weak; Growth phenotype on SDHI-amended plate ([2]; strain IPO323): No; Growth phenotype on SDHI-amended plate ([2]; strain IPO94269): No; EC50 ([3]; read-out: EC50 (nM) Mean, strain 06STD024): 28.2 nM; EC50 ([3]; read-out: EC50 (nM) Mean, strain 07STGB009): 24.5 nM; EC50 ([3]; read-out: EC50 (nM) Mean, strain 09STD041): 19.8 nM; EC50 ([3]; read-out: EC50 (nM) Mean, strain 09STD053): 6.4 nM; EC50 ([3]; read-out: EC50 (nM) Mean, strain 09STF011): 17.8 nM; EC50 ([3]; read-out: EC50 (nM) Mean, strain 09STF037): 8.1 nM; EC50 ([3]; read-out: EC50 (nM) Mean, strain 09STF112): 18.7 nM; EC50 ([3]; read-out: EC50 (nM) Mean, strain 09STIR20.3): 8.1 nM; EC50 ([3]; read-out: EC50 (nM) Mean, strain Flu21 (SDHC1_A84I)): 163 nM; EC50 ([3]; read-out: EC50 (nM) Mean, strain IPO323): 4.5 nM; EC50 ([3]; read-out: EC50 (nM) Mean, strain IPO94269): 4.7 nM; EC50 ([3]; read-out: EC50 (nM) Mean, strain KO_SDHC1_T1): 377 nM; EC50 ([3]; read-out: EC50 (nM) Mean, strain KO_SDHC1_T3): 230 nM; EC50 ([3]; read-out: EC50 (nM) Mean, strain KO_SDHC3_T4): 5.1 nM; EC50 ([3]; read-out: EC50 (nM) Mean, strain KO_SDHC3_T13): 5.6 nM; EC50 ([3]; read-out: EC50 (nM) Mean, strain pTet::SDHC3_I78A_T1): 4.8 nM; EC50 ([3]; read-out: EC50 (nM) Mean, strain pTet::SDHC3_I78A_T5): 6 nM; EC50 ([3]; read-out: EC50 (nM) Mean, strain pTet::SDHC3_I78A_T15): 4.9 nM; EC50 ([3]; read-out: EC50 (nM) Mean, strain pTet::SDHC3_I78A_T35): 2.9 nM; EC50 ([3]; read-out: EC50 (nM) Mean, strain pTet::SDHC3_T1): 164 nM; EC50 ([3]; read-out: EC50 (nM) Mean, strain pTet::SDHC3_T2): 160 nM; EC50 ([3]; read-out: EC50 (nM) Mean, strain pTet::SDHC3_T3): 108 nM; EC50 ([3]; read-out: EC50 (nM) Mean, strain pTet::SDHC3_T7): 183 nM; RF (resistance factor), D024 SDHC1 KO (altC) [4]: 4.9; RF (resistance factor), D024 SDHC1 KO (altC) ([4]; listed as pydiflumetofen): 6; IC50 ([4]; mitochondria of 06STD024 ZtSDHC1 deletion mutant (pure altC-SQR), mean of three ± SD): 1.5 ± 0.4 nM; IC50 [5]: 0.9 ± 0.3 nM; RF (resistance factor), D024 SDHC3 KO (SDHC) [6, 8]: 1.1; IC50 ([6]; mitochondria of 06STD024 ZtSDHC3 deletion mutant, mean of three ± SD): 0.3 ± 0.07 nM; IC50 [7]: 0.3 ± 0.04 nM
